Reference: patent US5187103A, “Colorimetric method and reagent for the assay of lithium in a test sample” (Miles Inc., priority 1991, dated 1993)

Legend:
[1] = Ion selectivity and sensitivity of larger cavity cryptand analogs
[2] = pKa in 10% DEGMEE-water, determined spectrophotometrically (Table II); type: physicochemical; settings: for pKa: spectrophotometric
[3] = UV-VIS spectra of the cryptand in complexation with various ions (Table I); type: physicochemical
Procedure: (§1) The UV-VIS spectra of p-nitrophenylazophenol (1.1.0) cryptand in complexation with various ions, i.e. Na^+ K^+, and Li^+, were determined in 1 to 2×10^-4 M solutions of the cryptand in 2 to 50% volume to volume (v/v) DEGMEE in water. A 1×10^-2 M stock solution of the cryptand was prepared in DEGMEE. Typically, the solutions were prepared as follows: for the spectral characteristics in 10% v/v DEGMEE, 0.2 ml of the stock solution was added to 0.8 ml DEGMEE. The diluted cryptand was quantitatively transferred to 9.0 ml of the appropriate reagent and mixed. 1N HCl was used to obtain the acid form (HL) and 1M TMAOH for the base form of the cryptand which is designated in the following tables as L. Tne resulting solutions were scanned from 700 to 300 nm on a Beckman DU-8 spectrophotometer. The spectra of the cation complexes of p-nitrophenylazophenol (1.1.0) cryptand in 10% v/v DEGMEE/1M TMAOH were obtained by adding 0.02 ml LiCl, KCl, NaCl, all 1N to their respective cuvettes containing 2 ml of reagent and scanned from 700 to 300 nm.
Table I records the wavelength maxima and absorptivities of p-nitrophenylazophenol (1.1.0) cryptand when exposed to Na^+, K^+ and Li^+ ions in 10% v/v DEGMEE.

[4] = Effect of pH on response to cations in 10% v/v DEGMEE (Table III); type: physicochemical
Procedure: as §1
A zwitterionic buffer CAPS was used (Table III).

[5] = Spectral response to lithium (analytical wavelength); type: physicochemical
Procedure: as §1

[6] = Effect of non-ionic surfactant on wavelength maxima and absorptivities (first Table IV); type: physicochemical; settings: Brij-35 and Triton X-100 at 1% w/v; cryptand and its lithium complex
Excerpt: Non-ionic surfactants are known to interact with monoazo dyes producing a disturbance of the electronic spectrum.

[7] = Effect of organic solvent (DEGMEE) concentration on sensitivity and selectivity; settings: 2.5% DEGMEE
Procedure: as §1
However, high concentration of solvent also affects the selectivity; at 25% DEGMEE, interference by 140 mM Na^+ corresponds to 0.1 mM Li^+, which is not acceptable for clinical purposes. The selectivity requirements of the lithium assay are high, in certain cases where the concentration of lithium is near 0.1 mM, the molar ratio of Li^+ :Na^+ is about 1:1500. […]

[8] = Selectivity for Li^+ over Na^+ and other cations (slopes of response curves); settings: sample to reagent ratio 1:40
Excerpt: By taking the ratio of the slope of the respective response curves, one obtains approximate selectivity of 4000:1 for Li^+ /Na^+.

[9] = 10% v/v DEGMEE, HL in 1N HCl, L and complexes in 1M TMAOH

## O=[N+]([O-])c1ccc(N=Nc2cc3c(O)c(c2)CCN2CCOCCOCCN(CCOCCOCC2)CC3)cc1 [(2.2.0) cryptand, reference compound]
[1]; effect of increased cavity size
  selectivity and sensitivity: more selective for potassium over sodium and lithium
[2]
  pKa: 11.1

## O=[N+]([O-])c1ccc(N=Nc2cc3c(O)c(c2)CCN2CCOCCN(CCOCC2)CC3)cc1 [HL]
[3]; [9]
  λmax 1: 494 nm
  λmax 2: 363 nm
[3]; absorptivity at λmax 1, 10% v/v DEGMEE
  ε 1: 8,800 M^-1 cm^-1
[3]; absorptivity at λmax 2, 10% v/v DEGMEE
  ε 2: 8,000 M^-1 cm^-1

## O=[N+]([O-])c1ccc(N=Nc2cc3c(O)c(c2)CCCN2CCOCCN(CCC3)CCOCC2)cc1 [extended (1.1.0) cryptand]
[1]; extraction mode
  response to lithium: very good response to lithium in the extraction mode
[2]
  pKa: 11.5

## O=[N+]([O-])c1ccc(N=Nc2cc3c(O)c(c2)CCN2CCOCCN(CCOCC2)CC3)cc1 [p-nitrophenylazophenol (1.1.0) cryptand]
[4]
  shift and absorptivity change with pH: bathochromic shift with concurrent increase in absorptivity
[5]
  wavelength of decrease in absorbance with lithium: 600 nm
  wavelength of increase of the lithium complex: 534 nm
[6]
  effect of surfactant on λmax and absorptivities: substantial bathochromic shift of the λmax and an increase in the absorptivities
[7]
  reduction of response to lithium: 25%
[3]; acid form
  wavelength maxima and absorptivities of acid form: two wavelength maxima (Table I) of equivalent absorptivities
[8]
  selectivity over sodium: almost total selectivity over sodium
[2]
  pKa compared with larger cavity analogs or usual: Higher than usual pKa
  pKa: 12.6
